In US9062095B2, “Mutant double cyclized receptor peptides inhibiting β1-adrenoceptor antibodies” (JULIUS-MAXIMILIANS-UNIVERSTITAT-WURZBURG, priority 2007, dated 2015):
Positions of bridges follow the written chain, without caps; N, C: chain ends. No end group written: not given here.

Experiments:
[1] = system: beta1-receptor antibodies; assay: in vivo prevention study: five prophylactic peptide applications, serum antibody-titers by ELISA; design: species or system rat; settings: 1.0 mg/kg body weight i.v., 4-weekly, prevention protocol (FIG. 12)
Protocol: FIG. 12 is a diagram resuming the in vivo blocking capacity of in total five (prophylatic) applications of various linear and cyclic beta1-ECII-peptides, started 3 months after the first immunization (and two subsequent beta1-ECII/GST-antigen-boosts, corresponding to a prevention protocol). Serum-titers of the beta1-receptor antibodies were determined before and 18-20 h after each peptide injection (abscissa, time in months) and are given in % of the corresponding antibody-titers of immunized untreated rats (y-axis, ordinate). The injected peptides were: 25AA Cys/Cys linear peptide (black squares), […] (white squares), 18AA Cys/Cys cyclopeptide (black diamond), 18AA Cys/Ser cyclopeptide mutant (white diamonds), and the 18AA Cys/Ser linear peptide mutant (vertically hatched diamonds). […] Black circles indicate antibody-titers of untreated regularly (every 4 weeks) immunized animals serving as reference, set at 100%.
The in-vivo blocking effects of both 25AA and 18AA Cys/Ser mutant cyclopeptides (with a Gln closure site), the 18AA Ser/Cys mutant cyclopeptide, and a mutated linear 18AA Cys/Ser peptide were analyzed after intravenous (i.v.) injection of 1.0 mg/kg body weight (Bw) of each construct into freshly immunized antibody-positive rats (i.e., use of cyclo-peptides in a kind of “prevention” study), with a first cyclopeptide-application 3 months after the initial immunization (and two subsequent boost at months 2 and 3). In total, five prophylactic applications of the various constructs were given at 4-weekly intervals, always two weeks after the monthly continued antigen boost. Sera were drawn 18-20 hours after i.v. injection and assayed for reactivity by ELISA using the 3 Cys-containing linear 25AA Cys/Cys-peptide as an antigen (FIG. 12).

[2] = system: anti-β1-ECII antibodies; assay: ELISA-competition assay: peptide preincubated with sera/IgG of immunized antibody-positive rats, linear 25AA Cys/Cys-peptide as antigen; type: binding, rat; design: blocking capacity (% of blocked versus non-blocked ELISA-reactivity): concentration or dose not given beside the values; settings: for decrease in circulating free anti-beta1-ECII antibodies: n=6 sera (FIG. 11); for blocking capacity (% of blocked versus non-blocked ELISA-reactivity): IgG from n=78 immunized antibody-positive rats, preincubation 12 h, mutants with D-Glu ring closure (FIG. 7); for blocking capacity (% of blocked versus non-blocked ELISA-reactivity) / blocking-efficiency versus unblocked sera: 4° C.; for blocking capacity (% of blocked versus non-blocked ELISA-reactivity) / blocking efficiency (% of blocked versus non-blocked ELISA reactivity) / blocking capacity (% of blocked versus non-blocked ELISA reactivity): ±SEM; for blocking-efficiency versus unblocked sera: n=6 sera, incubation 12-14 h, mean ±SEM (FIG. 27); for blocking efficiency (% of blocked versus non-blocked ELISA reactivity): type1 sera (93%, n=64 of 69), FIG. 9 upper panel; for blocking capacity (% of blocked versus non-blocked ELISA reactivity): type 2 sera (7%, n=5 of 69), FIG. 9 lower panel
Protocol: FIG. 9 is a diagram composed of two major-(upper and lower) panels resuming the blocking effect of both 25AA- and 18AA-cyclopeptide mutants having a Gln closure site, as well as 18AA cyclopeptide mutants having a D-Glu closure site after preincubation (12 h, 4° C., rotating incubation) with sera isolated from 69 different immunized antibody-positive rats in an ELISA-competition assay using the 3 Cys-containing linear 25AA Cys/Cys-peptide as an antigen. The upper panel depicts rat sera preferentially reacting with the Cys/Ser mutated cyclopeptides (type1 reaction, n=64), separated in cyc25AA(Gln)-peptides (left) and cyc18AA(Gln and D-Glu)-peptides (right). The lower panel depicts the rat sera reacting with both the Cys/Ser and the Ser/Cys mutated cyclopeptides (type2 reaction, n=5), again separated in the results obtained with cyc25AA(Gln)-peptides (left) and cyc18AA(Gln and D-Glu)-peptides (right).
FIG. 11 is a diagram resuming the dose-dependent (x-axis, abscissa: fold molar excess of specific peptides) blocking capacity of various linear and cyclic beta1-ECII-peptides given in % of the unblocked antibody-titer (y-axis, ordinate), including 25AA Cys/Cys linear peptides (black squares), 25AA Cys/Ser cyclopeptide mutants (white squares), 18AA Cys/Cys cyclo-peptides (black diamonds), 18AA Cys/Ser cyclopeptide mutants (white diamonds), and 18AA Cys/Ser linear peptide mutants (vertically hatched diamonds) in an ELISA competition assay performed with sera from n=6 randomly chosen immunized antibody-positive rats.
FIGS. 27A and B depict the in vitro blocking (=neutralization) capacity of various cysteine-containing cyclopeptide variants of the second extracellular loop (ECII) of the human beta1-adrenergic receptor, determined by testing n=6 individual sera (27A) of immunized beta1-ECII-antibody-positive rats after over-night incubation with the indicated cyclopeptides (12-14 h, 4° C.) by ELISA. Columns in 27A represent the receptor-antibody blocking efficiency of the indicated cyclopeptides in % of the antibody-(ELISA-)signals obtained with unblocked antibody-positive rat sera. Columns in 27B represent the mean blocking efficiency for each cyclopeptide, error bars indicate ±SEM.
The blocking capacity of β1-ECII-18AA cyclopeptide mutants (Cys13-Ser14 or Ser13-Cys14 mutation having an additional D-Glu-Gln exchange, e.g. at the ring closure site) was compared with the 3 Cys-containing 25AA or 18AA Cys/Cys cyclopeptides after preincubation (12 h, 4° C., rotating incubation over-night) of different numbers of sera from immunized antibody-positive rats in an ELISA-competition assay using the 3 Cys-containing linear 25AA Cys/Cys-peptide as an antigen. FIGS. 4, 5, and 7-10 show the results from measurements performed with sera of n=12 up to n=82 immunized antibody-positive rats using different cyclopeptides of the present invention.

[3] = system: anti-beta1-receptor antibody-titers; assay: in vivo therapy study in long term immunized cardiomyopathic rats: antibody-titers by ELISA; design: species or system rat
Protocol: FIG. 16A is a diagram resuming the in vivo blocking effect of both 25AA and 18AA cyclopeptide mutants with a Gln closure site, determined after a total of nine intravenous (i.v.) in-jections of 1.0 mg/kg body weight (Bw) of the indicated peptides into immunized antibody-positive rats. Sera were drawn before and 18-20 hours after i.v. injection of the various peptides every 4 weeks (abscissa: time in months of treatment) and assayed for reactivity by ELISA using the 3 Cys-containing linear 25AA Cys/Cys-peptide as an antigen.
FIG. 16B is a diagram resuming the in vivo blocking effect of various concentrations of 18AA cyclopeptide mutants with a Gln closure site, determined after a total of nine intra-venous (i.v.) injections of 0.25, 1.0, 2.0, and 4.0 mg/kg body weight (Bw) into immunized antibody-positive rats, irrespective of the cyclopeptide “responder-state” of individual animals. Sera were drawn before and 18-20 hours after i.v. injection of the various peptides every 4 weeks (abscissa: time in months), and assayed for reactivity by ELISA using the 3 Cys-containing linear 25AA Cys/Cys-peptide as an antigen.
Sera were drawn as described above and assayed for reactivity by ELISA using the 3 Cys-containing linear 25AA Cys/Cys-peptide as an antigen.
Moreover, the in vivo blocking effects of therapeutically used 25AA and 18AA Cys/Ser cyclo-peptide mutants, the 18AA Ser/Cys mutant (Gln-)cyclopeptide, and a mutated linear 18AA Cys/Ser peptide were assessed after a first intravenous (i.v.) dose (i.e., 1.0 mg/kg body weight (Bw)) of each construct injected into long term immunized anti-beta1-ECII antibody-positive rats, yet presenting a cardiomyopathic phenotype (after nine months of 1× monthly immunization with the beta1-ECII/GST antigen; FIGS. 14-16 and 17). Sera were drawn 18-20 hours after the first i.v. injection of the various constructions and assayed for reactivity by ELISA using the 3 Cys-containing linear 25AA Cys/Cys-peptide as an antigen.
The latter doses were almost equally efficient in terms of both, neutralization of circulating receptor antibodies (FIGS. 16b and c), and reversal of antibody-induced cardiomyopathic features (FIGS. 17b, 19b, 20, and 21b).
In order to generate anti-β1-receptor antibodies the animals were immunized with a fusion protein containing bacterial glutathione-S-transferase and the sequence of the second extra-cellular loop of the human β1-adrenergic receptor (GST/β1-ECII). Before treatment of the animals with mutated cyclopeptides according to the present invention, progressive dilated immune cardiomyopathy is observed after 6 to 8 months of regular immunization every four weeks (FIG. 17). All of the immunized animals developed high titers of stimulatory anti-β1-ECII antibodies. The specific anti-β1-ECII titer reached a maximum between 6 and 8 months of continuously boosting the animals every 4 weeks, whereas NaCl-injected control animals developed no specific receptor antibodies (FIG. 18).
Such immunized animals were used for the application of mutant cyclopeptides according to the present invention. The in-vivo blocking effect of both 25AA and 18AA Cys/Ser mutant cyclopeptides (with a Gln closure site) were determined after a first intravenous (i.v.) injection of 1.0 mg/kg body weight (Bw) (for 18AA Cys/Ser cyclopeptides also 0.25 mg/kg/Bw) into immunized antibody-positive rats. Sera were drawn 18-20 hours after i.v. injection of the different peptides and assayed for reactivity by ELISA using the 3 Cys-containing linear 25AA Cys/Cys-peptide as an antigen.

[4] = 20-fold molar excess of peptide
[5] = 80-fold molar excess of peptide

Substance	antibody-titer decrease after 5 injections, compared with untreated immunized animals [1] [%]	decrease in circulating free anti-beta1-ECII antibodies ([2]; 8-fold molar excess of peptide) [%]	decrease in circulating free anti-beta1-ECII antibodies [2, 4] [%]	decrease in circulating free anti-beta1-ECII antibodies [2, 5]	blocking capacity (% of blocked versus non-blocked ELISA-reactivity) [2] [%]	blocking-efficiency versus unblocked sera [2] [%]	blocking efficiency (% of blocked versus non-blocked ELISA reactivity) [2] [%]	blocking capacity (% of blocked versus non-blocked ELISA reactivity) [2] [%]	initial transient increase in antibody-titers ([3]; 1.0 mg/kg Bw (FIGS. 16a and b))	absolute decrease in antibody-titers after 9 months of treatment, of the titer at start of therapy ([3]; 1.0 mg/kg i.v. every 4 weeks) [%]	fraction of rat sera blocked by the peptide ([2]; n=69 sera, (Gln-)cyclopeptide mutants (FIG. 10), Cys/Ser = blocked by it alone (n=64), Ser/Cys = sera blocked by both (n=5))	in vivo blocking capacity after the first i.v. injection ([3]; 1 mg/kg Bw, sera 18-20 hours after injection (FIGS. 14 and 15))
18AA Cys/Cys cyclopeptides: (non-mutated) 3 Cys-containing β1-ECII-homologous 18AA cyclopeptide (cyclo(ADEARRCYNDPKCCDFVQ); not fully specified (bridges); cysteine pairing not given here) [reference compound]	89.9±3	46	56	71%	60±4	66.1±7.0	59±2	67±6	–	–	–	–
Cyclo-Ala-Arg-Ala-Glu-Ser-Asp-Glu-Ala-Arg-Arg-Cys-Tyr-Asn-Asp-Pro-Lys-Cys-Ser-Asp-Phe-Val-Thr-Asn-Arg-Gln (cyclo(ARAESDEARRCYNDPKCSDFVTNRQ); disulfide 11-17 (inferred)) [25AA Cys/Ser mutant cyclopeptides]	–	30	49	83%	–	–	69±2	48±6	transient increase in antibody-titers	−37±13	–	–
ARAESDEARRCYNDPKCCDFVTNRQ (cysteine pairing not given here) [linear 25AA Cys/Cys peptides, reference compound]	25.8±3	24	35	about 50%	55±4	–	–	–	–	–	–	–
cyc22AA Cys/Cys: 3 cysteine-containing cyclic 22AA beta1-ECII peptide with a Gly closure site (cyclo(RAESDEARRCYNDPKCCDFVTG); disulfide (positions not given here)) [reference compound]	–	–	–	–	–	82.0±5.0	–	–	–	–	–	–
cyclo(Ala-Asp-Glu-Ala-Arg-Arg-Cys-Tyr-Asn-Asp-Pro-Lys-Ser-Cys-Asp-Phe-Val-Gln) (cyclo(ADEARRCYNDPKSCDFVQ); disulfide 7-14 (inferred)) [18AA Ser/Cys with Gln-]	–	–	–	–	–	–	1±2	47±3	–	–	about 7%	clearly less efficient
